The values below come from patent US7897637B2, “Methods of using flavonoids to enhance memory” (The Salk Institute for Biological Studies, priority 2006, dated 2011).

Like-named read-outs stand apart in the source and are kept apart here.

Experiment [1] relates to PC12 cells. As to the kind of experiment: PC12 cell differentiation assay (neurite outgrowth). As to conditions: for EC50 / Emax: Rattus norvegicus, PC-12, PC12 cells in N2 medium, 24 hours, neurites scored; for EC50: read-out: EC50 (μM), induction of PC12 cell differentiation; for Emax: read-out: Maximal Efficacy, induction of PC12 cell differentiation. The class given is cell-based. As to the method:
Four trihydroxyflavones (THF) and three dihydroxyflavones (DHF) which lack one or two, respectively, of the hydroxyl groups found in fisetin were tested for their ability to induce the differentiation of PC12 cells. Differentiation was assessed by scoring neurite outgrowth (Sagara et al., J. Neurochem., 90:1144-1155, 2004). […]
PC12 cells in N2 medium were treated with flavonoids for 24 hours at which time the cells were scored for the presence of neurites. PC12 cells produce neurites much more rapidly when treated in N2 medium than when treated in regular growth medium (Kimura et al., J. Cell Biol., 116:777-83, 1992). For each treatment, 100 cells in each of three separate fields were counted. Cells were scored positive if one or more neurites>1 cell body diameter in length were observed.

Experiment [2] deals with HT22 cells. The experiment can be described thus: Protection of HT22 cells from oxidative glutamate toxicity (MTT assay). The format is cell-based, mouse. The conditions noted are these: 24 hours; for EC50 / Emax: Mus musculus, HT22 cells, 5 mM glutamate, MTT assay; for EC50: HT-22, 24 h, read-out: EC50 (μM), protection from oxidative-stress induced death; for Emax: HT-22, read-out: Maximal Efficacy, protection from oxidative-stress induced death. From the text:
Fisetin is effective at protecting nerve cells from oxidative stress-induced death (Ishige et al., Free Radic. Biol. Med., 30:433-446, 2001). This Example illustrates the structure-activity relationship between fisetin derivatives and neuroprotection in a model of oxidative glutamate toxicity using mouse HT22 cells. This pathway of programmed cell death is initiated by the addition of glutamate to the extracellular medium. Glutamate inhibits the uptake of cystine which is required for glutathione (GSH) biosynthesis, resulting in the depletion of GSH in neurons (for review see Tan et al., Curr. Top. Med. Chem., 1:497-506, 2001). Subsequently, this decrease in cellular GSH results in the production of reactive oxygen species (ROS) by mitochondria. The ROS accumulation then causes Ca^+2 influx from the extracellular medium which leads to cell death.
HT22 cells were untreated (Ct) or treated with 10 μM fisetin, 25 μM 3,3′-DHF, 25 μM 3,4′-DHF, 2.5 μM 3′,4′-DHF, 2.5 μM 3,3′,4′-THF 25 μM 3,7,3′-THF, 25 μM 3,7,4′-THF or 10 μM 7,3′,4′-THF in the presence of 5 mM glutamate±50 μM PD98059. Twenty four (24) hours later cell survival was measured by the MTT assay.
HT22 cells were untreated (Ct) or treated with 10 μM fisetin, 25 μM 3,3′-DHF. […] Protection by all of the other flavonoids was unaffected by BSO.
Cell viability was determined by a modified version of the 3-(4,5-dimethylthiazol-2-yl)-2,5-diphenyl tetrazolium bromide (MTT) assay based on the standard procedure (Hansen et al., J. Immunol. Meth., 119:203-10, 1989). Briefly, cells were seeded onto 96-well microtiter plates at a density of 5×10^3 cells per well. The next day, the medium was replaced with DMEM supplemented with 7.5% DFCS and the cells were treated with the different flavonoids alone or in the presence of 5 mM glutamate. Twenty four hours later, the medium in each well was aspirated and replaced with fresh medium containing 2.5 μg/ml MTT. After 4 hours of incubation at 37° C., cells were solubilized with 100 μl of a solution containing 50% dimethylformamide and 20% SDS (pH 4.7). The absorbance at 570 nm was measured on the following day with a microplate reader (Molecular Devices). Results obtained from the MTT assay correlated directly with the extent of cell death as confirmed visually. Controls employing wells without cells were used to determine the effects of the agents upon the assay chemistry.

Experiment [3] can be described thus: Trolox Equivalent Activity Concentration (ABTS decolorization assay). The conditions noted are these: Trolox as reference. As for the experimental part:
To determine if the protection seen with the different fisetin derivatives correlated with their antioxidant properties, their Trolox Equivalent Activity Concentration (TEAC) values were determined. In this procedure, a compound is compared to Trolox, a water-soluble vitamin E analog, for its ability to reduce the radical cation of ABTS in aqueous solution. As reported previously, fisetin has a TEAC value of ˜3 (Table II). None of the derivatives had TEAC values in this range despite, in some cases, showing better protection against oxidative stress-induced death. Thus, there was no correlation with antioxidant activity as defined by TEAC value and protection in this system.
TEAC values for the flavonoids were determined according to (Re et al. Free Rad. Biol. Med., 26:1231-7, 1999) but modified for a plate reader. Briefly, 250 μl of 2,2′-azinobis(3-ethylbenzothiazoline 6-sulfonate)(ABTS) treated overnight with potassium persulfate and diluted to an OD of ˜0.7 at 734 nm was added to 2.5 μl of a flavonoid solution in ethanol. The change in absorbance due to the reduction of the ABTS radical cation was measured at 734 nm for 4 minutes. To calculate the TEAC, the gradient of the plot of the percentage inhibition of absorbance vs. concentration for the flavonoid in question is divided by the gradient of the plot for Trolox.

Experiment [4] deals with Nrf2 and HO-1. As to the kind of experiment: Nrf2 and HO-1 induction in HT22 cells (immunoblotting). As to conditions: for increasing the levels of Nrf2 and inducing HO-1 synthesis: HT22 cells, 10-25 μM, 4 hours (Nrf2), 24 hours (HO-1). The class given is cell-based, mouse. As to the method: Since the ability to activate the ARE could be important for some of the beneficial effects of flavonoids such as fisetin, it was determined which, if any, of the fisetin derivatives could activate the ARE and induce the synthesis of downstream proteins such as HO-1. HT22 cells were untreated (control) or treated with 10 μM fisetin, 25 μM 3,3′DHF, 25 μM 3,4′-DHF, 10 μM 3′,4′-DHF, 10 μM 3,3′,4′-THF, 25 μM 3,7,3′-THF, 25 μM 3,7,4′-THF or 10 μM 7,3′,4′-THF for 4 hours. Nuclei were prepared and equal amounts of protein were analyzed by SDS-PAGE and immunoblotting with anti-Nrf-2 antibodies.
ERK activation is implicated in the induction of Nrf2 by certain stimuli in some cell types. To determine if ERK activation plays a role in the induction of Nrf2 and HO-1 by fisetin and its derivatives, cells were pretreated with PD98059 prior to the addition of the flavonoids to the cells. HT22 cells then were untreated (control) or treated for 24 hours with 10 μM fisetin, 25 μM 3,3′-DHF, 25 μM 3,4′-DHF, 10 μM 3′,4′-DHF, 10 μM 3,3′,4′-THF, 25 μM 3,7,3′-THF, 25 μM 3,7,4′-THF or 10 μM 7,3′,4′-THF. Cell lysates were prepared and equal amounts of cellular protein were analyzed by SDS-PAGE and immunoblotting with anti-HO-1 antibodies. Immunoblotting with anti-actin was used as a loading control.
For immunoblotting of HO-1, untreated and flavonoid-treated HT22 cells from the same density cultures as used for the cell death assays were washed twice in cold phosphate-buffered saline (PBS) then scraped into lysis buffer containing 50 mM HEPES, pH 7.4, 150 mM NaCl, 50 mM NaF, 1.5 mM MgC2, 1 mM EGTA, 10% glycerol, 1% Triton X-100, 10 mM sodium pyrophosphate, 1 mM Na3VO4, 1 mM phenylmethylsulfonyl fluoride (PMSF), 15 μg/ml aprotinin, 1 μg/ml pepstatin, and 5 μg/ml leupeptin. Lysates were incubated at 4° C. for 30 minutes, and then cleared by centrifugation at 14,000 rpm for 10 minutes. For immunoblotting of Nr12, nuclear extracts were prepared as described (Schreiber et al., Nuc. Acids Res., 17:6419, 1989) from untreated and flavonoid-treated cells. […] Protein concentrations were determined using the BCA protein assay (Pierce). Equal amounts of protein were solubilized in 2.5×SDS sample buffer, separated on 10% SDS polyacrylamide gels and transferred to nitrocellulose. The primary antibodies used were: anti-Nrf2 (#SC13032; 1/1000) from Santa Cruz Biotechnology (Santa Cruz, Calif.) and anti-HO-1 (#SPA-896; 1/5000) from Stressgen (Victoria, BC Canada).
(In western blotting, separated proteins are transferred to a membrane and probed.)

Experiment [5] has as its system PC12 cells. As to conditions: cited from earlier work; for EC50: PC12 cells, read-out: EC50 for differentiation; for EC50 / differentiation of the cells induced at best: Sagara et al. 2004.
Experiment [6] deals with ERK2 (p42). The experiment can be described thus: ERK2 (p42) phosphorylation in hippocampal slices (immunoblotting, densitometry). The format is cell-based, rat. The conditions noted are these: inhibitor alone (50 μM PD98059 or 10 μM U0126, 30 minutes). As for the experimental part:
(§1) Western blots panels A and B) of hippocampal slices treated with (A) 1 μM fisetin or (B) pretreated for 30 minutes with either 50 μM PD98059 (PD) or 10 μM U0126 (U) before the addition of 1 μM fisetin for 5 minutes, which blots were probed with the indicated antibodies.
(§2) Hippocampal slices in artificial cerebral spinal fluid (ACSF) were treated with either 1 μM fisetin for 5-20 minutes or pretreated for 30 minutes with either 50 μM PD98059 (PD) or 10 μM U0126 (J) before the addition of 1 μM fisetin for 5 minutes. Equal amounts of protein were analyzed by SDS-PAGE and immunoblotting with antibodies to phospho-ERK and phospho-CRFB along with antibodies to the unphosphorylated forms of the proteins. The average phosphoprotein signal from the blots was quantified by densitometry and normalized to total protein was plotted±S.D.

Experiment [7] concerns ERK1 (p44). The experiment can be described thus: ERK1 (p44) phosphorylation in hippocampal slices (immunoblotting, densitometry). The class given is cell-based, rat. As to conditions: inhibitor alone (50 μM PD98059 or 10 μM U0126, 30 minutes). As to the method:
as §1, §2

Experiment [8] deals with CREB. As to the kind of experiment: CREB phosphorylation in hippocampal slices (immunoblotting, densitometry). The class given is cell-based, rat. As to conditions: inhibitor alone (50 μM PD98059 or 10 μM U0126, 30 minutes). As for the experimental part:
as §1, §2

Regarding `O=c1c(O)c(-c2cccc(O)c2)oc2ccccc12` [3,3′-DHF, 3,3′-dihydroxyflavone], in experiment [1], the concentration for a half-maximal effect (EC50) came out at 10 µM and the Emax fell in the range of 40 to 50%. Also, in experiment [2], the half-maximal effective concentration (EC50) was 12 µM and the Emax is above 80%. Moreover, in experiment [3], the TEAC is listed as 1.01 ± 0.01.

On to `O=c1c(O)c(-c2ccc(O)cc2)oc2ccccc12` [3,4′-DHF, 3,4′-dihydroxyflavone], for which the “ability to induce differentiation” value in experiment [1] (PC12 cells) was “slightly less efficacious and potent than fisetin”. In addition, the EC50 in experiment [1] was found to be 20 µM; in experiment [2], 10 µM. In addition, the Emax in experiment [1] is 50 to 60%; in experiment [2], above 70%. The “effect of higher levels of BSO on protection” value in experiment [2] (5 mM glutamate + 1 mM BSO, MTT) is reported as “reduced protection”. Besides, the TEAC in experiment [3] amounted to 0.62 ± 0.06. In addition, the “increasing the levels of Nrf2 and inducing HO-1 synthesis” value in experiment [4] is given as “fairly effective”.

`O=c1c(O)c(-c2cccc(O)c2)oc2cc(O)ccc12` [3,7,3′-THF, 3,3′,7-trihydroxyflavone]: in experiment [1], the EC50 came to 15 µM and the Emax lay in the range of 40 to 50%. Besides, in experiment [2], the EC50 came out at 17 µM and the Emax was above 90%. Besides, the TEAC in experiment [3] was found to be 1.55 ± 0.34.

For the compound `O=c1c(O)c(-c2ccc(O)cc2)oc2cc(O)ccc12` [3,7,4′-THF, 3,4′,7-trihydroxyflavone], in experiment [1], the EC50 is 10 µM and the Emax lay within 70 to 80%. Moreover, in experiment [2], the EC50 is 12.5 µM and the Emax was above 90%. In addition, the TEAC in experiment [3] worked out at 1.01 ± 0.10. The “increasing the levels of Nrf2 and inducing HO-1 synthesis” value in experiment [4] was “fairly effective”. The “effect of inhibition of ERK activation (PD98059) on Nrf2 and HO-1 induction” value in experiment [4] (PD98059 pretreatment) is “reduced”.

Regarding `O=c1cc(-c2ccc(O)c(O)c2)oc2cc(O)cc(O)c12` [Iuteolin, 5,7,3′,4′-tetrahydroxyflavone], in experiment [5], the half-maximal effective concentration (EC50) was 10 µM and the “differentiation of the cells induced at best” value (from here on “differentiation … at best”) is given as 50%.

`N#CC(=C(/N)Sc1ccccc1N)/C(C#N)=C(\N)Sc1ccccc1N` [U0126, reference compound]: in experiment [6], the “p42 phosphoprotein signal normalized to total protein” value is listed as 0.30±0.05. The “p44 phosphoprotein signal normalized to total protein” value in experiment [7] is given as 0.13±0.06. In addition, in experiment [8], the “CREB phosphoprotein signal normalized to total protein” value is 0.71±0.31.

Consider `COc1cc(-c2oc3cc(O)cc(O)c3c(=O)c2O)ccc1O` [isorhamnetin, 3′-methoxy-3,5,7,4′-tetrahydroxyflavone], for which, in experiment [5], the half-maximal effective concentration (EC50) was 10 µM and the “differentiation … at best” value was 50%.

Take `O=c1c(O)c(-c2cc(O)c(O)c(O)c2)oc2cc(O)cc(O)c12` [myricetin]: in experiment [5] (earlier flavonoid comparison), the “differentiation promoting activity” value is given as “completely ineffective”.

As for `O=c1c(O)c(-c2ccc(O)c(O)c2)oc2cc(O)cc(O)c12` [quercetin, 3,5,7,3′,4′-pentahydroxyflavone], in experiment [5], the EC50 was 10 µM and the “differentiation … at best” value is 50%.

One may read the EC50 as the concentration giving half of the maximal effect.
